Active and inactive are the calls of the source.
How the values were obtained:
[1] = target: Dual specificity tyrosine-phosphorylation-regulated kinase 1A (Rattus norvegicus, UniProt Q63470); type: biochemical, Homo sapiens
[2] = target: Mitochondrial peptide methionine sulfoxide reductase (Bos taurus, UniProt P54149); type: functional;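 further: absorbance read-out, biochemical high-throughput dose-response screen for MsrA inhibitors, confirmatory; recombinant bovine MsrA coupled to E. coli TrxB with NADPH and selenocystamine; potency is for inhibitors of MsrA activity on DMSO substrate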
Sequence of Mitochondrial peptide methionine sulfoxide reductase (P54149 whole entry): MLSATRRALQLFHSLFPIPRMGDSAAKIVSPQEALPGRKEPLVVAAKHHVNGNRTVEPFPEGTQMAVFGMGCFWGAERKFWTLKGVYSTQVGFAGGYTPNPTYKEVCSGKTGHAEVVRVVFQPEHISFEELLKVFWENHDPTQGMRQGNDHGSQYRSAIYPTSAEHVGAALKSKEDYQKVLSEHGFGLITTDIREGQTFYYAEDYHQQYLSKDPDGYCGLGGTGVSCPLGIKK

[3] = target: Cytochrome P450 2D6 (Homo sapiens, UniProt P10635);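 further: CYP2D6 member of a cytochrome P450 panel assay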
Sequence of Cytochrome P450 2D6 (P10635 whole entry): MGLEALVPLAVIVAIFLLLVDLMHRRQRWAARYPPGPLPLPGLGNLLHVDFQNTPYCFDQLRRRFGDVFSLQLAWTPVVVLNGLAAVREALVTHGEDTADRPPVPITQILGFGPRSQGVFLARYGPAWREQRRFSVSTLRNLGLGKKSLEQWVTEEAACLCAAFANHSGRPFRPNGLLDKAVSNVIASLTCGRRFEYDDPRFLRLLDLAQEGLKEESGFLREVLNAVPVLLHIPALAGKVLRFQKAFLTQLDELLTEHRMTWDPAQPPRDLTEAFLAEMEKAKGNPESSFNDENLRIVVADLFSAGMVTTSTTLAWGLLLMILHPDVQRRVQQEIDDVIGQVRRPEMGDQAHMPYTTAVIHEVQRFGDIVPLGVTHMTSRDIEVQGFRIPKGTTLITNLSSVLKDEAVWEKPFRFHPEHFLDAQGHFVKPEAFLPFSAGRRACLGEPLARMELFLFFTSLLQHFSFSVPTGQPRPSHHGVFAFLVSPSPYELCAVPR

[4] = target: Potassium voltage-gated channel subfamily KQT member 2 (Rattus norvegicus, UniProt O88943); assay: blockers of KCNQ2 channel current – cell-based, automated electrophysiology, set II, rat KCNQ2, dose response (AID 588637); type: functional
Sequence of Potassium voltage-gated channel subfamily KQT member 2 (O88943 whole entry): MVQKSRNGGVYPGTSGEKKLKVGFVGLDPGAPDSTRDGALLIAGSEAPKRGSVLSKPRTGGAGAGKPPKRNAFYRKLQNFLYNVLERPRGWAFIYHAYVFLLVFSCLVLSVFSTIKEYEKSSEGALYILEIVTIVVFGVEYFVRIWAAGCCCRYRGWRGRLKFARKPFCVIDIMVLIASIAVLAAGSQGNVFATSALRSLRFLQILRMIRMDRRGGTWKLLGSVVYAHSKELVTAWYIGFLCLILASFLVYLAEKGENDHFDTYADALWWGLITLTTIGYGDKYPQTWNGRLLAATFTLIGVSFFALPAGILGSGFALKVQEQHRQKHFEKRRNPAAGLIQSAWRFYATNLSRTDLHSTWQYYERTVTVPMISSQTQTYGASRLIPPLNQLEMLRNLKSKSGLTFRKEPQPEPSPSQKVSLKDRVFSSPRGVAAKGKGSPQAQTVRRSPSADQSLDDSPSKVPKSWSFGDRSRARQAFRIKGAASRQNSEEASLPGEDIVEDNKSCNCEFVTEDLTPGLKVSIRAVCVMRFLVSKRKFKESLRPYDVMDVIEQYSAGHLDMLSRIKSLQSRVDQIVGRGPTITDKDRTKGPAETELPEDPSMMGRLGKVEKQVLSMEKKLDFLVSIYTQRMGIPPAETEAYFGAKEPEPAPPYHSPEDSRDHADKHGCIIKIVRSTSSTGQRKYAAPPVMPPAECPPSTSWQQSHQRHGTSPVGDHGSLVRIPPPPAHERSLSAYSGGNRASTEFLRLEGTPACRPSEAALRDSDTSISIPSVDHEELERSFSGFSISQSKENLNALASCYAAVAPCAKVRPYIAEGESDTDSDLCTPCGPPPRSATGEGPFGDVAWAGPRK

[5] = system: H9c2; assay: cells; type: functional, cell-based; details: Rattus norvegicus, H9c2, Myocardium;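 further: confirmatory concentration-response retest of ultra-high-throughput screening hits for modulation of myocardial damage; cell death induced by hydrogen peroxide oxidative stress; compound pretreatment for 60 min then peroxide exposure for 2 h; potency is for protecting the cells against peroxide damage rather than for killing them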
[6] = target: T1, Sentrin-specific protease 8 (Homo sapiens, UniProt Q96LD8); assay: inhibition of human SENP8 cleavage activity – biochemical, luminescence, SAR follow-up (AID 504501); type: functional
T1 sequence (Q96LD8 whole entry): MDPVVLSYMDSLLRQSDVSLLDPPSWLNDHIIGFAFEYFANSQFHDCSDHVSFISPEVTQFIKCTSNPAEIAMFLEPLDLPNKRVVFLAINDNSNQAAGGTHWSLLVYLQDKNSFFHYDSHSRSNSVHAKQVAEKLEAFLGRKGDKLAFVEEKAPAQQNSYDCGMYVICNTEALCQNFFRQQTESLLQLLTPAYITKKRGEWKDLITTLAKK

[7] = target: T2, Caspase-3 (Homo sapiens, UniProt P42574); assay: SAR Analysis of small molecule inhibitors of Sentrin-specific proteases (SENPs) using a Caspase-3 Selectivity assay. [Related pubchem assays (depositor defined):AID2540, AID2599, AID434973, AID489001]; type: functional
T2 sequence (P42574 whole entry): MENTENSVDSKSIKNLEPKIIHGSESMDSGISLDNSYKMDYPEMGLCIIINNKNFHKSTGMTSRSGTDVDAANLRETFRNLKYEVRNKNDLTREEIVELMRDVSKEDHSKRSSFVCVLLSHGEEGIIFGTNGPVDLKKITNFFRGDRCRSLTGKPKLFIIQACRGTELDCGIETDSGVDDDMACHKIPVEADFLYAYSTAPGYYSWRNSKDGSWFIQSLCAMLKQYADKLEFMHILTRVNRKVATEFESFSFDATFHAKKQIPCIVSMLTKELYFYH

[8] = target: T3, Sentrin-specific protease 6 (Homo sapiens, UniProt Q9GZR1); assay: SAR Analysis of small molecule inhibitors of Sentrin-specific protease 6 (SENP6) using a Luminescent assay. [Related pubchem assays (depositor defined):AID2582, AID2599]; type: functional
T3 sequence (Q9GZR1 whole entry): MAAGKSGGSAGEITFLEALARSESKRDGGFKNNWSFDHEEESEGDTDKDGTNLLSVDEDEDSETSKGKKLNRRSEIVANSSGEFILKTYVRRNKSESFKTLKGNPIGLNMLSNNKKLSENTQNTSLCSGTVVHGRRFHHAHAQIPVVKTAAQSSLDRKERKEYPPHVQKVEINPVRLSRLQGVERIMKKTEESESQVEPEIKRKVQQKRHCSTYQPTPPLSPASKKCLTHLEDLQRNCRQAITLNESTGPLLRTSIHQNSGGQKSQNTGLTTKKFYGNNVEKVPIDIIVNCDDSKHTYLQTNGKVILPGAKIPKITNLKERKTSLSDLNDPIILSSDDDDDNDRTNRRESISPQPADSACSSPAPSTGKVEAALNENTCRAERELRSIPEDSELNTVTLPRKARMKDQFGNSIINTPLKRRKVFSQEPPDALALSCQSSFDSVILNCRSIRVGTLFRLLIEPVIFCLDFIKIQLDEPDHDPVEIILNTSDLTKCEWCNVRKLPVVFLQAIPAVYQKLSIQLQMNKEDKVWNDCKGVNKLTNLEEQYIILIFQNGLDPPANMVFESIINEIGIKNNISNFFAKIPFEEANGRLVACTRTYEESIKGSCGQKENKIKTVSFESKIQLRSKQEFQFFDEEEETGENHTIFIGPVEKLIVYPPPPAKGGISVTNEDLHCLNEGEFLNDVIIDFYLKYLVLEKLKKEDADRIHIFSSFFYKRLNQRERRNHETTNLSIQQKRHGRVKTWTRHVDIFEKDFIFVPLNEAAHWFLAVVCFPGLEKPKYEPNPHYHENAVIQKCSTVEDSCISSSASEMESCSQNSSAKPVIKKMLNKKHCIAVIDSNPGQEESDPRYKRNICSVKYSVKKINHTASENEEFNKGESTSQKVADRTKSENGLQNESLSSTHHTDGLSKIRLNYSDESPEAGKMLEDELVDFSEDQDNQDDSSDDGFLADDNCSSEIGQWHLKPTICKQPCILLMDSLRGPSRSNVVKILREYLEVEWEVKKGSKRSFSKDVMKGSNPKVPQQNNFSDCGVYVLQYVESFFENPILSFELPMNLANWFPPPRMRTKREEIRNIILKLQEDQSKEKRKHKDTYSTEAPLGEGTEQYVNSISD

[9] = target: T4, Sentrin-specific protease 7 (Homo sapiens, UniProt Q9BQF6); assay: inhibition of human SENP7 cleavage activity – biochemical, luminescence, SAR follow-up (AID 504497); type: functional
T4 sequence (Q9BQF6 whole entry): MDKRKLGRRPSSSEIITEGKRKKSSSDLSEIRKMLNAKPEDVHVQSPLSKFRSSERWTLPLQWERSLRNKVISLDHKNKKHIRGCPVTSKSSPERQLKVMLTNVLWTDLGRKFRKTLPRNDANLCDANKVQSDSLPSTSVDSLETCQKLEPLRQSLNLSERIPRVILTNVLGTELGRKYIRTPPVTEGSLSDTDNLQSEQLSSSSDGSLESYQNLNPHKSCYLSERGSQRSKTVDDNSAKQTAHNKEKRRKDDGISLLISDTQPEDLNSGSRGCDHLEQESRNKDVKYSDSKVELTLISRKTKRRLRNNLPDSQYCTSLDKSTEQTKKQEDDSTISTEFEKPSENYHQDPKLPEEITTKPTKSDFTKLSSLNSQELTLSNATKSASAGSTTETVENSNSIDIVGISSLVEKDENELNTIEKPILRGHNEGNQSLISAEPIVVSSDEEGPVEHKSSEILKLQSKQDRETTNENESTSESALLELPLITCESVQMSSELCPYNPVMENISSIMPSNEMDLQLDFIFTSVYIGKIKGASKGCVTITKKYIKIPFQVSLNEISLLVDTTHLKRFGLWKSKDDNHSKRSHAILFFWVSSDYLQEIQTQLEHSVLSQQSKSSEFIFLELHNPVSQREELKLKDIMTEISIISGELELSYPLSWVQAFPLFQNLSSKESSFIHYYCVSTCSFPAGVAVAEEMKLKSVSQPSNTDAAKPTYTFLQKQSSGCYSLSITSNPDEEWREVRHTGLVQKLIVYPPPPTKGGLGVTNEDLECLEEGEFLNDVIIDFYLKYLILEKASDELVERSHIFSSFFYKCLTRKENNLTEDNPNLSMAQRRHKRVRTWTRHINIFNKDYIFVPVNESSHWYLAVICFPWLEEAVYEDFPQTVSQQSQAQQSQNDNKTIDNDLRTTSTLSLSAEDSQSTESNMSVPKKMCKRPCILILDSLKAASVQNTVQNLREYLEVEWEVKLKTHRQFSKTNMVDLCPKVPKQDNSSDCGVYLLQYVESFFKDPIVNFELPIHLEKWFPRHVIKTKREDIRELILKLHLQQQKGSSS

[10] = target: T5, Apoptotic protease-activating factor 1 (Homo sapiens, UniProt O14727); type: functional
T5 sequence (O14727 whole entry): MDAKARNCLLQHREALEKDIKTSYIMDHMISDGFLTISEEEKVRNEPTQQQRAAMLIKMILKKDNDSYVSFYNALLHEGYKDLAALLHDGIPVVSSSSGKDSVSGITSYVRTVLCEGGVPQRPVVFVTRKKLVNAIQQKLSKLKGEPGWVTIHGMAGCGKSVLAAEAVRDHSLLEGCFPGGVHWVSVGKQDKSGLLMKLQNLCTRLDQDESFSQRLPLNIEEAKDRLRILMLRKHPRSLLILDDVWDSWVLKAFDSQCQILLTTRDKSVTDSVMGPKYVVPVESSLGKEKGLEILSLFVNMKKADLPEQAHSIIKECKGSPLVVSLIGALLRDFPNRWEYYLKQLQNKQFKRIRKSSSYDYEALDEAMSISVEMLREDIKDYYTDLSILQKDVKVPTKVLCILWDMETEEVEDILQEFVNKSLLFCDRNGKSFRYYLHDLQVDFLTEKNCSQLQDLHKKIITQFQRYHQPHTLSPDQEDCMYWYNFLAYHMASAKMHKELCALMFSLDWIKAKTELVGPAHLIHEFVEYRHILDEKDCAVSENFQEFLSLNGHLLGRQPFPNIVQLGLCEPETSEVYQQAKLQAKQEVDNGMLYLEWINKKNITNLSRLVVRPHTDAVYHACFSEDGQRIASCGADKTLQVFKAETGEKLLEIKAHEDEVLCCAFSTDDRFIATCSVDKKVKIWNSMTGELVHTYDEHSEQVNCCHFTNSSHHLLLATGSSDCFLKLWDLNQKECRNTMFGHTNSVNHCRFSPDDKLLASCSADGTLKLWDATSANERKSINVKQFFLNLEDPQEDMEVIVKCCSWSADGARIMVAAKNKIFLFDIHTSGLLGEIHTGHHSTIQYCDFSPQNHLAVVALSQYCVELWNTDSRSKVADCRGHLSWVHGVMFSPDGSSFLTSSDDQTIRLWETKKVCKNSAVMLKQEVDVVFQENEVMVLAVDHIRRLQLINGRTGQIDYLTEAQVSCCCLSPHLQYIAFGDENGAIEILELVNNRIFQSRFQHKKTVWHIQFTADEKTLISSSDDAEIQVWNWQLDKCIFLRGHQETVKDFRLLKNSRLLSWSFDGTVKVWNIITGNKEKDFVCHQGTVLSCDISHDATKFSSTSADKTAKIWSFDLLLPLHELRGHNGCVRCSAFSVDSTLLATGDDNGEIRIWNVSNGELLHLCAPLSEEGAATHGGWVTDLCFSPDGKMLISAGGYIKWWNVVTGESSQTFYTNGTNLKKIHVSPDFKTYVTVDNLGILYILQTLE

[11] = NIH-3T3 fibroblast cytotoxicity, dose response, cytotoxicity control, cell-based, fluorescence, Alamar Blue, secondary assay (AID 2327); type: functional;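 further: NIH-3T3 mouse fibroblasts cultured with fluconazole at 8 µg/mL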
[12] = fluconazole-exposed Candida albicans growth modulators – fluorescence, retest, confirmation (AID 2467); type: functional, cell-based
[13] = target: T6, Serine/threonine-protein phosphatase (Candida dubliniensis (strain CD36 / CBS 7987 / NCPF 3949 / NRRLY-17841) (Yeast), UniProt B9W6M3); assay: blockers of CaCl2-induced CDRE-lacZ signaling – S. cerevisiae, luminescence, secondary, dose response (AID 2388); type: functional, cell-based;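 further: yeast reporter cells carrying a calcineurin-responsive lacZ construct stimulated with calcium chloride; luminescent beta-galactosidase reporter signal in whole cells rather than isolated phosphatase activity; potency for inhibition where a drop in reporter signal means calcineurin blockade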
T6 sequence (B9W6M3 whole entry): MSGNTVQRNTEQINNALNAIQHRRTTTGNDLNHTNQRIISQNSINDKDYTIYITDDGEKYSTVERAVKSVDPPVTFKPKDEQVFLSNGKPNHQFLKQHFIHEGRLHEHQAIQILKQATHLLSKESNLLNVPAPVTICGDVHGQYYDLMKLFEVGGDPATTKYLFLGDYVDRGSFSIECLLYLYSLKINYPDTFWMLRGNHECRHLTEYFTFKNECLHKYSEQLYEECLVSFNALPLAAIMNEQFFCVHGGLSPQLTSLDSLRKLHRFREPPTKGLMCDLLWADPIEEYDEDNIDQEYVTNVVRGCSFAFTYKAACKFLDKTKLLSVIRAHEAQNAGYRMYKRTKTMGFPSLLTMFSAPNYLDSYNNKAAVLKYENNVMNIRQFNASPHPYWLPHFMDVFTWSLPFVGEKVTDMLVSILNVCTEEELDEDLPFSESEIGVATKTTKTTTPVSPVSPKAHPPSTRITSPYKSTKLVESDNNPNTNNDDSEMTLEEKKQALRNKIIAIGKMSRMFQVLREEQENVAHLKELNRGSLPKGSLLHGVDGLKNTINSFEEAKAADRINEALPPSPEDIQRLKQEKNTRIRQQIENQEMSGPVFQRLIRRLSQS

[14] = target: ATP-dependent molecular chaperone HSP82 (Candida albicans (strain WO-1) (Yeast), UniProt C4YTQ8); assay: steroid-induced GRE reporter decrease in yeast – S. cerevisiae, luminescence, Hsp90 inhibitor project, dose response (AID 2400); type: functional, cell-based;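 further: beta-galactosidase luminescence from glucocorticoid response element reporter as proxy for Hsp90 function; inhibitor potency where signal loss means Hsp90 inhibition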
Sequence of ATP-dependent molecular chaperone HSP82 (C4YTQ8 whole entry): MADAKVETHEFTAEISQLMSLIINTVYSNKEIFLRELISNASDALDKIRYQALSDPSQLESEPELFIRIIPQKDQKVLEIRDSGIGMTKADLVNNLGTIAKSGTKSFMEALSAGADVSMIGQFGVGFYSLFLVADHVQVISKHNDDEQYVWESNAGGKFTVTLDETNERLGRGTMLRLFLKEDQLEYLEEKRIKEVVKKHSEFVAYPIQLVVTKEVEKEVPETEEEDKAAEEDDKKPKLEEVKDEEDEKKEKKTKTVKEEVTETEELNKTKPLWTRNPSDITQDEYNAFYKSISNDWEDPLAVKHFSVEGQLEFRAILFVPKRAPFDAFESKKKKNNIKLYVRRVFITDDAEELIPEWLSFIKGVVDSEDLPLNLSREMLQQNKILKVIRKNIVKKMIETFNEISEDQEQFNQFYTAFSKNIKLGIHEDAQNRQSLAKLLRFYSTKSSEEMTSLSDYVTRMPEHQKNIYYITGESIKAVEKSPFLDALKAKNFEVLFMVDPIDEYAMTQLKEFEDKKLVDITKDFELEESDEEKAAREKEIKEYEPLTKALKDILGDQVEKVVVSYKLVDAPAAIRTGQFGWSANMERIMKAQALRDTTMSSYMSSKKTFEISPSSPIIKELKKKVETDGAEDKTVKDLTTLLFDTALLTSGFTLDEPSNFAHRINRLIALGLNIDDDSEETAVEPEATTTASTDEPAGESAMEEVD

[15] = system: BJ; assay: BJ-TERT fibroblast viability loss – cell-based, RAS-independent, luminescence, dose response (AID 1933); type: functional; details: Homo sapiens
[16] = system: BJ; assay: cells; type: functional, cell-based; details: Homo sapiens
[17] = system: BJ; assay: BJ-TERT-LT-ST fibroblast viability loss – cell-based, RAS-independent, luminescence, dose response (AID 1935); type: functional; details: Homo sapiens;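 further: BJ fibroblasts immortalized with TERT plus LT and ST oncogenes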
[18] = DRD fibroblast viability loss – cell-based, non-viral oncogenic, luminescence, dose response (AID 1934); type: functional; details: Homo sapiens
[19] = system: BJ; assay: growth inhibition of engineered Ras-driven BJ cells – cell-based, alamar blue fluorescence, cherrypicked samples, dose response (AID 2631); type: functional; details: Homo sapiens;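 further: confirmatory dose-response assay in RAS-dependent BJ fibroblasts engineered with TERT, LT and ST, with cytotoxicity read by fluorescence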
[20] = system: INS1; assay: INS-1E survival protection against cytokine death – cell-based, luminescence, retest, dose response (AID 449756); type: functional; details: Rattus norvegicus;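 further: cell death triggered by IL-1 beta plus TNF-alpha plus IFN-gamma mixture; protective hits raise ATP signal compared with cytokine alone wells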

SMILES: COc1cc2c(cc1O)C[C@H]1c3c(cc(O)c(OC)c3-2)CCN1C [BOLDINE]
- AC50 [1]: 4.84 µM (active)
- IC50 [2]: 47.8 µM (inactive)
- AC50 [3]: 6.31 µM (inconclusive)

SMILES: COc1cc(-c2cc(C(=O)Nc3ccccc3N3CCOCC3)c3ccccc3n2)cc(OC)c1OC
- IC50 [4]: 0.11 µM (active)
- IC50 [5]: > 79 µM (inactive)

SMILES: COc1ccc(C2CCCN2C(=O)c2sc3ccccc3c2Cl)cc1OC (stereo unspecified)
- IC50 [6]: > 99 µM (inactive)
- IC50 [7]: > 99 µM (inactive)
- IC50 [8]: > 99 µM (inactive)
- IC50 [9]: > 99 µM (inactive)

SMILES: Cc1ccccc1NC(=O)c1ccccc1N(C)S(=O)(=O)c1ccccc1
- IC50 [4]: 0.0922 µM (active)

SMILES: Cc1cccc(C)c1NC(=O)Cn1cc(C=O)c2ccccc21
- IC50 [10]: > 100 µM (inactive)

SMILES: Cc1cccc(/N=c2\oc3cc(O)ccc3cc2C(N)=O)c1
- IC50 [2]: 155 µM (inactive)

SMILES: Cc1cccc(N/N=C/c2cn(Cc3ccccc3)c3ccccc23)c1
- IC50 [6]: > 99 µM (inactive)
- IC50 [7]: > 99 µM (inactive)
- IC50 [8]: > 99 µM (inactive)
- IC50 [9]: > 99 µM (inactive)

SMILES: CS(=O)(=O)NN1C(=O)c2ccccc2NC1c1cccc2cccnc12 (stereo unspecified)
- EC50 [11]: > 160 µM (inactive)
- EC50 [12]: 0.697 µM (active)
- EC50 [13]: > 180 µM (inactive)
- EC50 [14]: > 160 µM (inactive)

SMILES: CCOc1ccc(/N=C/c2c(C)[nH]n(-c3nc4ccccc4[nH]3)c2=O)cc1
- EC50 [15]: 1.22 µM (active)
- EC50 [16]: 2.41 µM (active)
- EC50 [17]: 4.74 µM (inconclusive)
- EC50 [18]: 2.52 µM (active)
- EC50 [19]: > 133 µM (inactive)
- AC50 [20]: 1.98 µM (active)

From ChEMBL document CHEMBL1201862, “PubChem BioAssay data set” (2004)
